Among the data in US20260209214A1, “LSD1 MODULATORS” (RECURSION PHARMACEUTICALS, INC., priority 2022, published 2026) are IC50 values, retold here.

In the assay the target is Recombinant human LSD1 (Homo sapiens, UniProt O60341). As to the kind of experiment: LSD1 inhibition assay (HTRF LSD1 Histone H3K4 mono-demethylation assay, me1->me0). The settings on record: 20 nM recombinant human LSD1, 95 nM H3K4(me1) biotinylated peptide, 15 min preincubation, 60 min at 25° C., read-out: LSD1 inhibition IC50 (nM range). The format is biochemical. Summed up: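 Recombinant human LSD1 (20 nM) pre-incubated 15 min with 10 semi-log compound doses, then 95 nM biotinylated H3K4me1 peptide for 60 min at 25 °C in pH 8.5 Tris/NaCl buffer with 10 μM FAD, 1 mM DTT. HTRF me0-antibody read after 90 min; IC50 from 4-parameter fit.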
A general note: In TR-FRET formats the signal depends on donor and acceptor labels being close together.
For the compound `Cn1nc2ccc(-c3ccc(CC4CNCCO4)cc3-c3ccc(C#N)c(F)c3)cc2c1Cl` (centres unmarked) [Example 91, 2′-(3-chloro-2-methyl-2H-indazol-5-yl)-3-fluoro-5′-[(morpholin-2-yl)methyl]-[1,1′-biphenyl]-4-carbonitrile], the IC50 was in the range of 25 to 100 nM.
Then `N#Cc1ccc(-c2cccc(CN3[C@@H]4CC[C@H]3[C@@H](N)C4)c2C(F)(F)F)cc1F` (racemic) [Example 200, 3'-{[(1S,2S,4R)-2-amino-7-azabicyclo[2.2.1]heptan-7-yl]methyl}-3-fluoro-2'-(trifluoromethyl)-[1,1'-biphenyl]-4-carbonitrile], with 25 to 100 nM; and `COCc1cc(-c2ccc(CC3CNCCO3)cc2-c2ccc(C#N)c(F)c2)on1` (centres unmarked) [Example 129, 3-fluoro-2′-[3-(methoxymethyl)-1,2-oxazol-5-yl]-5′-[(morpholin-2-yl)methyl]-[1,1′-biphenyl]-4-carbonitrile], with 100 to 1000 nM; and `Cc1cc(NC[C@@H]2CNCCO2)c(Cl)c(-c2ccc(C#N)c(F)c2)c1` (single isomer, unassigned) [Example 87], with more than 1000 nM.
`CN(C)C1CCN(c2cccc(-c3ccc(C#N)c(F)c3)c2-c2cnco2)CC1` [Example 95, 3'-[4-(dimethylamino)piperidin-1-yl]-3-fluoro-2'-(1,3-oxazol-5-yl)-[1,1'-biphenyl]-4-carbonitrile]: the IC50 was 25 to 100 nM.
The value for `COCC1CCN(c2ccc(CN3[C@@H]4CC[C@H]3[C@@H](N)C4)cc2-c2ccc(C#N)c(F)c2)CC1` (racemic) [Example 209, 5'-{[(1S,2S,4R)-2-amino-7-azabicyclo[2.2.1]heptan-7-yl]methyl}-3-fluoro-2'-[4-(methoxymethyl)piperidin-1-yl]-[1,1'-biphenyl]-4-carbonitrile] was 10 to 25 nM; that for `C[C@@]1(O)C[C@H]2CN(c3ccc(CC4CNCCO4)cc3-c3ccc(C#N)c(F)c3)C[C@H]2C1` (mixture of isomers) [Example 114, 2′-[(3aR,5S,6aS)-5-hydroxy-5-methyl-octahydrocyclopenta[c]pyrrol-2-yl]-3-fluoro-5′-[(morpholin-2-yl)methyl]-[1,1′-biphenyl]-4-carbonitrile] was 100 to 1000 nM; that for `CC(c1ccc(N2CCC2)c(-c2ccc(C#N)c(F)c2)c1)C1CNCCO1` (centres unmarked) [Example 76, 2′-(azetidin-1-yl)-3-fluoro-5′-[1-(morpholin-2-yl)ethyl]-[1,1′-biphenyl]-4-carbonitrile] was 100 to 1000 nM.
With `N#Cc1ccc(-c2cccc(CN3CC4(CCN4)C3)c2Cl)cc1F` [Example 292, 2'-chloro-3'-({1,6-diazaspiro[3.3]heptan-6-yl}methyl)-3-fluoro-[1,1'-biphenyl]-4-carbonitrile], the IC50 is more than 1000 nM.
Then `N#Cc1ccc(-c2cc(CN3[C@@H]4CC[C@H]3[C@@H](N)C4)ccc2OCCC(F)F)cc1F` (racemic) [Example 315, 5'-{[(1S,2S,4R)-2-amino-7-azabicyclo[2.2.1]heptan-7-yl]methyl}-2'-(3,3-difluoropropoxy)-3-fluoro-[1,1'-biphenyl]-4-carbonitrile], with less than 10 nM; and `N#Cc1ccc(-c2cccc(CN3C[C@]4(N)CC[C@H]3C4)c2OC(F)F)cc1F` [Example 177, 3'-{[(1S,4S)-4-amino-2-azabicyclo[2.2.1]heptan-2-yl]methyl}-2'-(difluoromethoxy)-3-fluoro-[1,1'-biphenyl]-4-carbonitrile], with less than 10 nM; and `CC1(F)CCN(c2ccc(CC3CNCCO3)cc2-c2ccc(C#N)c(F)c2)CC1` (centres unmarked) [Example 99, 3-fluoro-2′-(4-fluoro-4-methylpiperidin-1-yl)-5′-[(morpholin-2-yl)methyl]-[1,1′-biphenyl]-4-carbonitrile], with 100 to 1000 nM.
As for `CN(CC1CC1)c1c(CN2[C@@H]3CC[C@H]2[C@@H](N)C3)cccc1-c1ccc(C#N)c(F)c1` (racemic) [Example 269, 3'-{[(1S,2S,4R)-2-amino-7-azabicyclo[2.2.1]heptan-7-yl]methyl}-2'-[(cyclopropylmethyl)(methyl)amino]-3-fluoro-[1,1'-biphenyl]-4-carbonitrile], the IC50 was 100 to 1000 nM.
Then `COCC1CCN(c2ccc(CN3C[C@]4(N)CC[C@H]3C4)cc2-c2ccc(C#N)c(F)c2)CC1` [Example 216, 5'-{[(1S,4S)-4-amino-2-azabicyclo[2.2.1]heptan-2-yl]methyl}-3-fluoro-2'-[4-(methoxymethyl)piperidin-1-yl]-[1,1'-biphenyl]-4-carbonitrile], with less than 10 nM; and `N#Cc1ccc(-c2cccc(CN3[C@@H]4CC[C@H]3[C@@H](N)C4)c2N2CCC(F)CC2)cc1F` (racemic) [Example 241, 3'-{[(1S,2S,4R)-2-amino-7-azabicyclo[2.2.1]heptan-7-yl]methyl}-3-fluoro-2'-(4-fluoropiperidin-1-yl)-[1,1'-biphenyl]-4-carbonitrile], with 100 to 1000 nM; and `CC1(C)CN(Cc2cccc(-c3ccc(C#N)c(F)c3)c2C2CC2)CC1N` (centres unmarked) [Example 278, 3'-[(4-amino-3,3-dimethylpyrrolidin-1-yl)methyl]-2'-cyclopropyl-3-fluoro-[1,1'-biphenyl]-4-carbonitrile], with 100 to 1000 nM.
Then `CN1CCC12CCN(Cc1c(F)ccc(-c3ccc(C#N)c(F)c3)c1F)C2` (centres unmarked) [Example 290, 2', 3,4'-trifluoro-3'-({1-methyl-1,6-diazaspiro[3.4]octan-6-yl}methyl)-[1,1'-biphenyl]-4-carbonitrile], with more than 1000 nM; and `N#Cc1ccc(-c2cccc(CN3[C@@H]4CC[C@H]3[C@@H](N)C4)c2C2CCC2)cc1F` (racemic) [Example 218, 3'-{[(1S,2S,4R)-2-amino-7-azabicyclo[2.2.1]heptan-7-yl]methyl}-2'-cyclobutyl-3-fluoro-[1,1'-biphenyl]-4-carbonitrile], with 10 to 25 nM; and `N#Cc1ccc(-c2cccc(CN3CC4CNCC3C4)c2Cl)cc1F` (centres unmarked) [Example 238, 2'-chloro-3'-({3,6-diazabicyclo[3.2.1]octan-6-yl}methyl)-3-fluoro-[1,1'-biphenyl]-4-carbonitrile], with 100 to 1000 nM.
In the case of `CC1CCN(c2ccc(CN3[C@@H]4CC[C@H]3[C@@H](N)C4)cc2-c2ccc(C#N)c(F)c2)CC1` (racemic) [Example 259, 5'-{[(1S,2S,4R)-2-amino-7-azabicyclo[2.2.1]heptan-7-yl]methyl}-3-fluoro-2'-(4-methylpiperidin-1-yl)-[1,1'-biphenyl]-4-carbonitrile], the IC50 lay in the range of 10 to 25 nM.
Then `CC1(O)CCN(c2ccc(CC3CNCCO3)c(F)c2-c2ccc(C#N)c(F)c2)CC1` (centres unmarked) [Example 155, 2′,3-difluoro-6′-(4-hydroxy-4-methylpiperidin-1-yl)-3′-[(morpholin-2-yl)methyl]-[1,1′-biphenyl]-4-carbonitrile], with 100 to 1000 nM; and `N#Cc1ccc(-c2cccc(CN3CC4(CCNCC4)C3)c2Cl)cc1F` [Example 288, 2'-chloro-3'-({2,7-diazaspiro[3.5]nonan-2-yl}methyl)-3-fluoro-[1,1'-biphenyl]-4-carbonitrile], with 100 to 1000 nM; and `CN[C@@H]1C[C@@H]2CC[C@H]1N2Cc1cccc(-c2ccc(C#N)c(F)c2)c1C1CC1` (single isomer, unassigned) [Example 178], with 10 to 25 nM.

A word on the IC50: it is the concentration at which inhibition is half-maximal.
